Here are results for five molecules from patent publication US20240317683A1, “METHODS OF TREATING MOOD DISORDERS” (priority 2020, published 2024).

In general, half-life refers to how long it takes for the measured level to halve. Broadly, the microsomal CLint is the capacity of the preparation to metabolise the compound, expressed as a volume cleared per time. For orientation: AUC(0-t) means the area under the concentration-time curve up to a stated or last time point. A higher AUC(0-t) goes with high exposure. By Tmax is commonly meant the time at which the peak concentration occurs. A word on the Cmax: it is the peak of the concentration-time curve. As usually defined, the clearance is a measure of how efficiently the substance is removed, as volume per time. Low readings indicate inefficient removal, high ones efficient removal. Usually EC50 stands for the concentration giving half of the maximal effect. Lower therefore signals an effect from little substance.

Series [1] relates to monoamine oxidase A and B (MAO-A and MAO-B). Nature of the series: Stability in the presence of monoamine oxidases (human liver mitochondria). The series is classed as in vitro ADME. The following applies: for MAO stability (in words): human liver mitochondria preparation; for half-life at 1 μM / microsomal CLint at 1 μM: human liver mitochondria, pH 7.4; for half-life at 1 μM / microsomal CLint at 1 μM / Remaining (t = 60 min): human mitochondrial preparation, 1 μM. On the procedure:
Liver Mitochondria Incubations. Human liver mitochondria (Xenotech H0610.M) were used. Mitochondrial incubations were carried out in multi-well plates. […] Six time points over 60 minutes were analyzed.

Series [2] addresses 5-HT2A (Homo sapiens (Human), UniProt P28223). Kind of series: FLIPR Ca2+ flux agonist assay, 5-HT2A. The series is classed as cell-based. The following applies: for 5-HT2A % Act @ Max Dose / EC50: HEK293. On the procedure:
(§1) A solution of 250 mM probenecid in 1 mL FLIPR assay buffer was prepared fresh. This was combined with a fluorescent dye (Fluo-4 Direct™) to make a final assay concentration of 2.5 mM. […] The fluorescent dye was then added to the assay plate along with assay buffer to a final volume of 40 μL. The cell plate was incubated for 50 min at 37° C. and 5% CO2 and placed into the FLIPR Tetra along with the compound plate. 10 μL of references and compounds were then transferred from the compound plate into the cell plate and the fluorescent signal was read.
For orientation: A change in cytosolic calcium serves as a functional read-out for many receptors and channels.

Series [3] has as its target 5-HT2B (Homo sapiens (Human), UniProt P41595). Kind of series: FLIPR Ca2+ flux agonist assay, 5-HT2B. The following applies: for 5-HT2B % Act @ Max Dose: Ca2+ flux, HEK293. The series is classed as cell-based. The protocol:
as §1

Series [4] can be described thus: Stability in mouse brain homogenate. The series is classed as in vitro ADME, CD-1 mice. To be noted: for half-life at 1 μM: male, CD-1; for half-life at 1 μM / % Compound Remaining (after 120 min): mouse brain homogenate, 37° C., 1 μM. On the procedure: Mouse Brain Homogenate Stability. Frozen mouse brain homogenate (pooled from male CD-1 mice, BioreclamationIVT, MSE00BRAINMZA) was thawed in a water bath at 37° C. immediately prior to use. Positive controls and test compounds (final concentration in incubation medium=1 μM for test compounds and 2 μM for controls, all with 2% DMSO) were incubated in duplicate for each time point (0, 10, 30, 60, and 120 min) in the mouse brain homogenate at a total reaction volume of […] at 37° C. At the end of each incubation period, reactions were immediately quenched with 400 μL of acetonitrile containing internal standard (200 ng/mL tolbutamine and 200 ng/ml labetalol) and mixed thoroughly. Plates were then sealed, shaken for 20 min, and centrifuged at 4,000 rpm and 4° C. for 20 min. Aliquots of 50 μL of each supernatant were diluted into 100 μL of water and the mixtures were then shaken again for 10 min.

The nature of series [5]: Pharmacokinetics in mice, plasma. The series is classed as in vivo, C57BL/6 mice. To be noted: for AUC(0-t) / Tmax / Cmax / half-life / clearance: male, C57BL/6, mouse plasma; for F: mouse, based on plasma AUC0-last. The protocol: (§2) Animals. Male C57BL/6 mice, aged 8-12 weeks, were used in these studies. Four mice were housed in each cage. Temperature and humidity were maintained at 22±3° C. and 30-70%, respectively, and illumination was controlled to give a 12 h light and 12 h dark cycle. Temperature and humidity were recorded by an auto-controlled data logger system. All animals were provided laboratory rodent diet. Reverse osmosis water treated with ultraviolet light was provided ad libitum. Animals were randomly assigned to treatment groups.
(§3) Drugs. Compounds 4 and 5 were prepared as described above. All other compounds were commercially obtained. Test compounds were used as the hydrogen fumarate (1 and 2) or hydrochloride (3, 4, and 5) salts and were dissolved in a vehicle consisting of normal saline. They were then administered intravenously (IV) via the tail vein, subcutaneously (SC), or orally (PO) via gavage at a dose of 1 or 10 mg/kg (calculated based on the free base) and at a volume of 5 ml/kg body weight.
(§4) Sample Collection and Bioanalysis. Blood samples (approximately 60 μL) were collected under light isoflurane anesthesia (Surgivet®) from the retro orbital plexus at 0.08, 0.25, 0.5, 1, 2, 4, 8, and 24 h (4 animals per time point). Immediately after blood collection, plasma was harvested by centrifugation at 4,000 rpm for 10 min at 4° C. and samples were stored at −70±10° C. until bioanalysis. Following blood collection, animals were immediately sacrificed, the abdominal vena-cava was cut open, and the whole body was perfused from the heart using 10 mL of normal saline, and brain samples were collected from all animals. After isolation, brain samples were rinsed three times in ice-cold normal saline (for 5-10 seconds/rinse using ˜5-10 mL normal saline in disposable petri dish for each rinse) and dried on blotting paper. Brain samples were homogenized using ice-cold phosphate-buffered saline (pH 7.4). Total homogenate volume was three times the tissue weight. All homogenates were stored at −70±10° C. until bioanalysis. For bioanalysis, 25 μL aliquots of plasma/brain study samples or spiked plasma/brain calibration standards were added to individual pre-labeled micro-centrifuge tubes followed by 100 μL of an internal standard solution (glipizide, 500 ng/ml in acetonitrile) except for blanks, where 100 μL of acetonitrile was added. Samples were vortexed for 5 minutes and then centrifuged for 10 minutes at 4,000 rpm at 4° C. Following centrifugation, 100 μL of each clear supernatant was transferred to a 96 well plate and analyzed with a fit-for-purpose LC-MS/MS method, with authentic samples of each analyte used for calibration and identification.
(§5) Data Analysis. Pharmacokinetic parameters were estimated using the non-compartmental analysis tool of Phoenix® WinNonlin software (Ver 8.0).

Series [6] can be described thus: Pharmacokinetics in mice, brain. The following applies: for Tmax / Cmax / AUC0-last / half-life: mouse brain; for F: mouse, based on brain AUC0-last. The series is classed as in vivo, C57BL/6 mice. On the procedure: as §2, §3, §4, §5

Counter-ions that a name gives are not always drawn.

Sequence of 5-HT2B (P41595 whole entry, looked up, species assumed): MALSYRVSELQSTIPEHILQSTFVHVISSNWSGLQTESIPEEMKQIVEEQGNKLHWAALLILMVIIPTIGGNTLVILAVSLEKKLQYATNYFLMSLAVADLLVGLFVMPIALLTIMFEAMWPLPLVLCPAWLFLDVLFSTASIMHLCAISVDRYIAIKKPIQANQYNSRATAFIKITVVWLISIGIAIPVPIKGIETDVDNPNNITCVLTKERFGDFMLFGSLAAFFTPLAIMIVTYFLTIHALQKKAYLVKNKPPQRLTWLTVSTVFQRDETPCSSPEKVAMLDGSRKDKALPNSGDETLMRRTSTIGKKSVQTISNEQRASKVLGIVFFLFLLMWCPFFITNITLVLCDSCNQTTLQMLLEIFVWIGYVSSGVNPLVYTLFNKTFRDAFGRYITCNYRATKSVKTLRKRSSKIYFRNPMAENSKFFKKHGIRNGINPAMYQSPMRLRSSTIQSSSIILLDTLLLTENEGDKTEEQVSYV

Take `CN(C)CCc1c[nH]c2ccccc12` [DMT, N,N-dimethyltryptamine, reference compound]: in series [1], the “MAO stability (in words)” value is on record as “highly metabolized”, the half-life at 1 μM stood at 17.1 min, the microsomal CLint at 1 μM was found to be 135 µL/min/mg and the “Remaining (t = 60 min)” value is listed as 8.9%. Further, the “5-HT2A % Act @ Max Dose” value in series [2] came out at 93.4%. Moreover, the “5-HT2B % Act @ Max Dose” value in series [3] came out at 10.4%. Besides, in series [4], the “stability in mouse brain homogenate (in words)” value is on record as “highly unstable”, the half-life at 1 μM came out at 6.4 min and the “% Compound Remaining (after 120 min)” value amounted to 0.0%.
Consider `CN(C)CCc1c[nH]c2ccc(F)cc12` [Compound 5, 2-(5-fluoro-1H-indol-3-yl)-N,N-dimethylethan-1-amine hydrochloride], for which, in series [5] (SC, 1 mg/kg), the AUC(0-t) stood at 11 ng·h/mL and the Tmax worked out at 4.8 min. Also, the Cmax in series [5] (SC, 1 mg/kg, read-out: Cmax) worked out at 41.6 ng/mL. Moreover, in series [5] (SC, 10 mg/kg), the AUC(0-t) is 247 ng·h/mL, the Tmax came to 15 min and the half-life was 16.2 min. The Cmax in series [5] (SC, 10 mg/kg, read-out: Cmax) stood at 363 ng/mL. For the same molecule, the Tmax in series [6] (male, C57BL/6, SC, 1 mg/kg) was determined as 4.8 min. Besides, the Cmax in series [6] (male, C57BL/6, SC, 1 mg/kg, read-out: Cmax) was found to be 22 ng/g. In addition, the Tmax in series [6] (male, C57BL/6, SC, 10 mg/kg) is 15 min. Further, in series [6] (male, C57BL/6, SC, 10 mg/kg, read-out: Cmax), the Cmax is 778 ng/g. Also, in series [6] (SC, 10 mg/kg), the AUC0-last stood at 376.09 ng·h/g. In series [1], the “MAO stability (in words)” value is reported as “highly metabolized”, the half-life at 1 μM is 8.7 min, the microsomal CLint at 1 μM turned out to be 266 µL/min/mg and the “Remaining (t = 60 min)” value was found to be 0.9%. In series [4], the “stability in mouse brain homogenate (in words)” value is “highly unstable”, the half-life at 1 μM was determined as 3.1 min and the “% Compound Remaining (after 120 min)” value is reported as 0.0%.
In series [5] (IV, 10 mg/kg), `CCCN(CC)CCc1c[nH]c2ccccc12` [Compound 1, ethylpropyltryptamine] gave an AUC(0-t) of 844 ng·h/mL, a clearance of 197 mL/min/kg and a half-life of 114 min. Further, the Cmax in series [5] (IV, 10 mg/kg, read-out: Cmax (C0 back-extrapolated to t = 0)) was 3820 ng/mL. Further, in series [5] (oral, 10 mg/kg), the AUC(0-t) turned out to be 22.1 ng·h/mL, the Tmax came out at 4.8 min, the half-life is 113 min and the F came to 2.6%. Besides, the Cmax in series [5] (oral, 10 mg/kg, read-out: Cmax) came out at 20.3 ng/mL. For the same molecule, in series [6] (male, C57BL/6, IV, 10 mg/kg), the half-life was 104 min. In addition, the Cmax in series [6] (male, C57BL/6, IV, 10 mg/kg, read-out: Cmax (C0 back-extrapolated to t = 0)) is 15400 ng/g. Further, in series [6] (male, C57BL/6, oral, 10 mg/kg), the Tmax was found to be 15 min and the half-life was 39.6 min. Also, in series [6] (male, C57BL/6, oral, 10 mg/kg, read-out: Cmax), the Cmax was found to be 101 ng/g. Besides, the AUC0-last in series [6] (IV, 10 mg/kg) is 4,754.52 h*ng/g. In series [6] (oral, 10 mg/kg), this molecule had an AUC0-last of 68.93 ng·h/g and an F of 1.4%. Also, in series [1], the “MAO stability (in words)” value was “highly stable”, the half-life at 1 μM is over 145 min, the microsomal CLint at 1 μM was under 15.9 µL/min/mg and the “Remaining (t = 60 min)” value is listed as 95.1%. In series [2], the EC50 was 30.5 nM. Besides, in series [3], a half-maximal effect (EC50) was put at 40.3 nM and the “5-HT2B % Act @ Max Dose” value is listed as 80.4%. In addition, in series [4], the “stability in mouse brain homogenate (in words)” value is listed as “high stability”, the half-life at 1 μM was over 289 min and the “% Compound Remaining (after 120 min)” value worked out at 113.8%.
For the molecule `CCCN(CC)CCc1c[nH]c2ccc(F)cc12` [Compound 3, N-ethyl-N-(2-(5-fluoro-1H-indol-3-yl)ethyl) propan-1-amine hydrochloride], in series [1], the “MAO stability (in words)” value is listed as “highly stable”, the half-life at 1 μM is over 145 min, the microsomal CLint at 1 μM was under 15.9 µL/min/mg and the “Remaining (t = 60 min)” value is recorded as 97.7%. Further, in series [2], the “selectivity for 5-HT2A over 5-HT2B (in words)” value is “little selectivity”, the “5-HT2A % Act @ Max Dose” value is 104.1% and the EC50 stood at 5.54 nM. Besides, in series [3], it took 15.4 nM to reach a half-maximal effect (EC50) and the “5-HT2B % Act @ Max Dose” value came out at 64.64%. Further, in series [4], the “stability in mouse brain homogenate (in words)” value was “high stability”, the half-life at 1 μM was over 289 min and the “% Compound Remaining (after 120 min)” value was found to be 76.7%.
In series [5] (IV, 1 mg/kg), `CN(C)CCc1c[nH]c2cccc(O)c12` [Psilocin, psilocin, reference compound] had an AUC(0-t) of 79.9 ng·h/mL, a clearance of 204 mL/min/kg and a half-life of 66 min. The highest concentration (Cmax) in series [5] (IV, 1 mg/kg, read-out: Cmax (C0 back-extrapolated to t = 0)) was 195 ng/mL. In addition, in series [5] (oral, 1 mg/kg), the AUC(0-t) stood at 51.1 ng·h/mL, the Tmax turned out to be 10.2 min, the half-life was 118 min and the F came out at 64%. Besides, the Cmax in series [5] (oral, 1 mg/kg, read-out: Cmax) is 85.9 ng/mL. The molecule further came in with a clearance in series [6] (male, C57BL/6, mouse brain table, IV, 1 mg/kg) of 24.1 mL/min/kg. Moreover, the half-life in series [6] (male, C57BL/6, IV, 1 mg/kg) is 182 min. Further, in series [6] (male, C57BL/6, IV, 1 mg/kg, read-out: Cmax (C0 back-extrapolated to t = 0)), the Cmax is 1200 ng/g. Besides, in series [6] (male, C57BL/6, oral, 1 mg/kg), the Tmax turned out to be 10.2 min and the half-life was 175 min. For the same molecule, the Cmax in series [6] (male, C57BL/6, oral, 1 mg/kg, read-out: Cmax) turned out to be 211 ng/g. For the same molecule, the AUC0-last in series [6] (IV, 1 mg/kg) was 702 ng·h/g. In addition, in series [6] (oral, 1 mg/kg), the AUC0-last is 399 ng·h/g and the F is on record as 57%. Besides, in series [1], the “MAO stability (in words)” value is “highly stable”, the half-life at 1 μM was over 145 min, the microsomal CLint at 1 μM was under 15.9 µL/min/mg and the “Remaining (t = 60 min)” value is recorded as 112.1%. The “5-HT2B % Act @ Max Dose” value in series [3] is 1.44%. In series [4], the “stability in mouse brain homogenate (in words)” value is “high stability”, the half-life at 1 μM was over 289 min and the “% Compound Remaining (after 120 min)” value turned out to be 97.6%.
